Values quoted from earlier work as cited in US7915306B2, “Macrocyclic compounds useful as pharmaceuticals” (Eisai Co., Ltd., priority 2002, dated 2011).
Read-outs that look alike come from different tables or passages of the source.

Assays:
[1] = tested on: Map/Erk kinase (MEK)
[2] = mouse plasma
[3] = human plasma

inhibition of Map/Erk kinase (MEK) [1]: inhibit
biological stability (enone isomerization) [2]: susceptible to enone isomerization
biological stability (enone isomerization) [3]: susceptible to enone isomerization
SMILES: COc1cc(O)c2c(c1)/C=C/C[C@H](O)[C@H](O)C(=O)/C=C\C[C@H](C)OC2=O [F152]
